Assay [1] deals with HCT-116. Description: Induction of p21 accumulation in isogenic HCT116 p53-/- cells. It counts as functional, cell-based. The following applies: Homo sapiens.
For assay [2], the system named is HCT-116. Description: Induction of p53 accumulation in HCT116 cells expressing wild type p53. In kind it is functional, cell-based. The following applies: Homo sapiens.
The test system of assay [3] is HCT-116. Description: Induction of MDM2 accumulation in HCT116 cells expressing wild type p53. It counts as functional, cell-based. The following applies: Homo sapiens.
For assay [4], the system named is HCT-116. Description: Induction of p21 accumulation in HCT116 cells expressing wild type p53. In kind it is functional, cell-based. The following applies: Homo sapiens.
Assay [5] relates to HCT-116. Kind of assay: Induction of p53 accumulation in isogenic HCT116 p53-/- cells. In kind it is functional, cell-based. The following applies: Homo sapiens.
Assay [6] has as its system HCT-116. Kind of assay: Induction of MDM2 accumulation in isogenic HCT116 p53-/- cells. In kind it is functional, cell-based. The following applies: Homo sapiens.
In assay [7] the target is E3 ubiquitin-protein ligase Mdm2 (Homo sapiens, UniProt Q00987).
Sequence of E3 ubiquitin-protein ligase Mdm2 (Q00987 whole entry): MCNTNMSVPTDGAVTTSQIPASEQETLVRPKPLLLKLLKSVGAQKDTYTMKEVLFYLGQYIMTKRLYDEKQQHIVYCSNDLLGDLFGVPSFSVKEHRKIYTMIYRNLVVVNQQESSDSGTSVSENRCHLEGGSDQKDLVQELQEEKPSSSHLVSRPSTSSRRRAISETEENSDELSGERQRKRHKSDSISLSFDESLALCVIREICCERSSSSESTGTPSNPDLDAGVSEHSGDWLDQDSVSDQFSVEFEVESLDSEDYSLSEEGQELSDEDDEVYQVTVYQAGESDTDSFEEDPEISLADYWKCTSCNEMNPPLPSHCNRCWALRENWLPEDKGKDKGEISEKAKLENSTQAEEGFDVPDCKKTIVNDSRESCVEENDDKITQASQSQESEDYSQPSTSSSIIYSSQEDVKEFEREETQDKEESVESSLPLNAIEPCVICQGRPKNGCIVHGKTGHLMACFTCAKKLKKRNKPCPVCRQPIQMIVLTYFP

Calls of active or inactive are those of the source. No cut-off for these calls is given here.

For `Cc1ccc2ccc(C(Nc3ccccc3)c3ccccc3)c(O)c2n1` (configuration not stated), the outcome in the assay with HCT-116 [1], in the assay on HCT-116 [5] and in the assay with HCT-116 [6] was inactive. Besides, the Activity entry with HCT-116 [2], in the assay on HCT-116 [3] and in the assay with HCT-116 [4] was “Dose-dependent effect” each time. In assay [7], the Ki (in general, the dissociation constant of the complex between target and ligand, obtained from inhibition or displacement) worked out at 120 nM.

(Values after ChEMBL document CHEMBL1138059, “Discovery of a nanomolar inhibitor of the human murine double minute 2 (MDM2)-p53 interaction through an integrated, virtual database screening strategy” (J Med Chem, 2006).)
